Data from patent US8470811B2, “Substituted heterocyclylbenzylpyrazoles and use thereof” (Bayer Intellectual Property GmbH, priority 2010, dated 2013).
Blank lines part the entries; values can stand above or below the molecule they belong to.

Columns and labels:
[1] = Pharmacokinetic parameters after intravenous administration in rats; type: in vivo; settings: for half-life / Vd / clearance: rat, iv, 0.3-1.0 mg/kg, solution in plasma with up to 2% DMSO; for Vd: read-out: VSS; for clearance: read-out: CLplasma (converted)
Procedure: (§1) The substance to be examined was administered to animals (for example mice or rats) intravenously as a solution (for example in corresponding plasma with a small addition of DMSO or in a PEG/ethanol/water mixture), and peroral administration was effected as a solution (for example in Solutol/ethanol/water or PEG/ethanol/water mixtures) or as a suspension (e.g. in tylose), in each case via a gavage. After administration of the substance, blood was taken from the animals at fixed times. The blood was heparinized, then plasma was obtained therefrom by centrifugation. The substance was quantified analytically in the plasma via LC-MS/MS. From the plasma concentration/time plots determined in this way, using an internal standard and with the aid of a validated computer program, the pharmacokinetic parameters, such as AUC (area under the concentration/time curve), Cmax (maximum plasma concentration), t1/2 (half life), VSS (distribution volume) and CL (clearance), and the absolute and relative bioavailability F and Frel (i.v./p.o. comparison or comparison of suspension to solution after p.o. administration), were calculated.
The substance to be examined was administered intravenously to rats, in each case in amounts between 0.3 and 1.0 mg/kg as a solution in plasma which contained up to 2% DMSO.

[2] = Pharmacokinetic parameters after peroral administration in rats; type: in vivo; settings: for half-life: rat, plasma, po
Procedure: as §1
To determine the active ingredient release from a prodrug compound, the prodrug was administered either intravenously or perorally, as described above, and the concentrations both of the prodrug and of the active ingredient released were quantified in the processed plasma.
The substance to be examined was administered perorally to rats, in each case in amounts between 1 and 3 mg/kg as a solution in Solutol/ethanol/water (40:10:50 or 40:20:40). The kinetic parameters determined for Working Example 1 are shown below by way of example for the inventive compounds [AUCnorm=dose-normalized exposure (area under the concentration/time curve)]:
The second row in this table gives the pharmacokinetic parameters for Example 1, as obtained after peroral administration of the prodrug compound from Example 15 (1 mg/kg of crystalline substance as a tylose suspension in water).

[3] = pH-dependent hydrolysis stability; type: physicochemical
Procedure: 0.3 mg of the test substance (prodrug) was weighed into a 2 ml HPLC vial, and 0.6 ml of acetonitrile or acetonitrile/DMSO mixture (with up to 20 percent by volume of DMSO) was added. To dissolve the substance, the sample vessel was placed into an ultrasound bath for approx. 10 seconds. Subsequently, 1.0 ml of the particular aqueous buffer solution was added (commercially available buffer solutions of pH 2, 4, 6.5, 8 and 10) and the sample was treated again in the ultrasound bath. Over a period of 24 hours at 37° C., 5 μl of the sample solution were analysed by HPLC every hour for its content of unchanged prodrug or active ingredient released therefrom by hydrolysis. Quantification was effected via the area percentages of the corresponding HPLC peaks.

[4] = rats, 1-3 mg/kg, solution in Solutol/ethanol/water
[5] = rats, p.o., 1-3 mg/kg, solution in Solutol/ethanol/water

- CLplasma ([1]; intravenous administration): 0.4 I/h/kg
- half-life [1]: 30 h
- Vd [1]: 6.9 L/kg
- half-life [2, 4]: 29 h
- AUCnorm [2, 5]: 1.9 kg·h/L
- F [2, 5]: 74%
Structure (SMILES): Cc1ccc(Cn2nc(-c3nc(-c4ccc(OC(F)(F)F)cc4)no3)cc2C)cc1 [Example 1 in WO 2008/141731-A2, 5-[5-methyl-1-(4-methylbenzyl)-1H-pyrazol-3-yl]-3-[4-(trifluoromethoxy)phenyl]-1,2,4-oxadiazole, reference compound]

- half-life [1]: 6.8 h
- clearance [1]: 26.7 mL/min/kg
- Vd [1]: 12 L/kg
- AUCnorm ([2]; Example 1 in rat plasma after p.o. administration of prodrug Example 15, 1 mg/kg crystalline substance as tylose suspension in water): 0.35 kg·h/L
- half-life [2, 4]: 12 h
- AUCnorm [2, 5]: 0.43 kg·h/L
- F [2, 5]: 68%
Structure (SMILES): Cc1cc(-c2nc(-c3ccc(OC(F)(F)F)cc3)no2)nn1Cc1cccc(N2CC(O)C2)c1 [Example 1, 1-{3-[(5-Methyl-3-{3-[4-(trifluoromethoxy)phenyl]-1,2,4-oxadiazol-5-yl}-1H-pyrazol-1-yl)methyl]phenyl}azetidin-3-ol]

- half-life [1]: 8.2 h
- clearance [1]: 12 mL/min/kg
- Vd [1]: 7.8 L/kg
Structure (SMILES): Cc1cc(-c2nc(-c3ccc(SC(F)(F)F)cc3)no2)nn1Cc1cccc(N2CCC(O)CC2)c1 [Example 14, 1-(3-{[5-Methyl-3-(3-{4-[(trifluoromethyl)sulphanyl]phenyl}-1,2,4-oxadiazol-5-yl)-1H-pyrazol-1-yl]methyl}phenyl)piperidin-4-ol]

- prodrug compound itself in the plasma of the rats ([2]; after p.o. administration of Example 15, 1 mg/kg tylose suspension, all times examined): not detectable
- % Example 15 prodrug ([3]; pH 2, 37° C., 12 h): 89%
- % Example 15 prodrug ([3]; pH 4, 37° C., 12 h): 89%
- % Example 15 prodrug ([3]; pH 6.5, 37° C., 0 h): 94%
- % Example 15 prodrug ([3]; pH 6.5, 37° C., 2 h): 91%
- % Example 15 prodrug ([3]; pH 6.5, 37° C., 4 h): 87%
- % Example 15 prodrug ([3]; pH 6.5, 37° C., 6 h): 84%
- % Example 15 prodrug ([3]; pH 6.5, 37° C., 12 h): 73%
- % Example 15 prodrug ([3]; pH 6.5, 37° C., 24 h): 56%
- % Example 15 prodrug ([3]; pH 8, 37° C., 12 h): 64%
- % Example 15 prodrug ([3]; pH 10, 37° C., 12 h): 0%
- % Example 1 active ingredient ([3]; released from Example 15, pH 2, 37° C., 12 h): 6%
- % Example 1 active ingredient ([3]; released from Example 15, pH 4, 37° C., 12 h): 9%
- % Example 1 active ingredient ([3]; released from Example 15, pH 6.5, 37° C., 0 h): 3%
- % Example 1 active ingredient ([3]; released from Example 15, pH 6.5, 37° C., 2 h): 7%
- % Example 1 active ingredient ([3]; released from Example 15, pH 6.5, 37° C., 4 h): 10%
- % Example 1 active ingredient ([3]; released from Example 15, pH 6.5, 37° C., 6 h): 13%
- % Example 1 active ingredient ([3]; released from Example 15, pH 6.5, 37° C., 12 h): 22%
- % Example 1 active ingredient ([3]; released from Example 15, pH 6.5, 37° C., 24 h): 35%
- % Example 1 active ingredient ([3]; released from Example 15, pH 8, 37° C., 12 h): 30%
- % Example 1 active ingredient ([3]; released from Example 15, pH 10, 37° C., 12 h): 78%
Structure (SMILES): Cc1cc(-c2nc(-c3ccc(OC(F)(F)F)cc3)no2)nn1Cc1cccc(N2CC(OC(=O)CN(C)C)C2)c1 [Example 15, 1-{3-[(5-Methyl-3-{3-[4-(trifluoromethoxy)phenyl]-1,2,4-oxadiazol-5-yl}-1H-pyrazol-1-yl)methyl]phenyl}azetidin-3-yl N,N-dimethylglycinate]
